# Data published in PubChem BioAssay (NCI).
#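 Protocol summary: plate cells (96-well), add compound at 5 concentrations, incubate 48 h, interpolate endpoints linearly. GI50 marks 50% less growth. TGI: concentration producing complete growth inhibition.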
# Legend:
# Assay in all cases: NCI anticancer screen, dose series, 48 h
# CAKI-1 renal = system: CAKI-1 renal
# HCT-15 colon = system: HCT-15 colon
# K-562 leukemia = system: K-562 leukemia
# LOX IMVI melanoma = system: LOX IMVI melanoma
# PC-3 prostate = system: PC-3 prostate
# SF-539 CNS = system: SF-539 CNS
# SK-MEL-28 melanoma = system: SK-MEL-28 melanoma
# SK-MEL-5 melanoma = system: SK-MEL-5 melanoma
# SNB-75 CNS = system: SNB-75 CNS
# UACC-62 melanoma = system: UACC-62 melanoma
Compound,GI50 (CAKI-1 renal),TGI (CAKI-1 renal),GI50 (HCT-15 colon),TGI (HCT-15 colon),GI50 (K-562 leukemia),TGI (K-562 leukemia),GI50 (LOX IMVI melanoma),TGI (LOX IMVI melanoma),GI50 (PC-3 prostate),TGI (PC-3 prostate),GI50 (SF-539 CNS),TGI (SF-539 CNS),GI50 (SK-MEL-28 melanoma),TGI (SK-MEL-28 melanoma),GI50 (SK-MEL-5 melanoma),TGI (SK-MEL-5 melanoma),GI50 (SNB-75 CNS),TGI (SNB-75 CNS),GI50 (UACC-62 melanoma),TGI (UACC-62 melanoma)
C=C1C(=O)O[C@H]2[C@H]1CC/C(COC(=O)C(=O)c1cn(C)c3ccc(Cl)cc13)=C\CC[C@@]1(C)O[C@@H]21,1.71 µM,4.54 µM,0.209 µM,0.5 µM,1.65 µM,> 100 µM,0.191 µM,0.387 µM,1.41 µM,3.32 µM,1.66 µM,3.36 µM,1.49 µM,3.72 µM,1.55 µM,2.91 µM,1.61 µM,3.8 µM,0.356 µM,2.08 µM
c1cc(N2CCCN(c3ccc(C4=NCCCN4)cc3)CC2)ccc1C1=NCCCN1,> 100 µM,> 100 µM,> 100 µM,> 100 µM,88 µM,> 100 µM,> 100 µM,> 100 µM,91.9 µM,> 100 µM,59.4 µM,> 100 µM,> 100 µM,> 100 µM,46.6 µM,> 100 µM,> 100 µM,> 100 µM,68.1 µM,> 100 µM
O=c1ccs[nH]1,–,22.2 µM,–,33.8 µM,–,64.6 µM,–,18.4 µM,–,31.4 µM,–,18.3 µM,–,67.5 µM,–,46.5 µM,–,36.5 µM,–,39.8 µM
COC(=O)c1cc2c3ccccc3n3c(=O)c4cc5ccccc5nc4c(n1)c23,> 100 µM,> 100 µM,> 100 µM,> 100 µM,> 100 µM,> 100 µM,> 100 µM,> 100 µM,> 100 µM,> 100 µM,> 100 µM,> 100 µM,> 100 µM,> 100 µM,> 100 µM,> 100 µM,> 100 µM,> 100 µM,> 100 µM,> 100 µM
CCOC(=O)NC1C2CC(=O)OC(O2)C1OC(C)=O (stereo unspecified),–,> 100 µM,–,> 100 µM,–,> 100 µM,–,> 100 µM,> 100 µM,> 100 µM,–,> 100 µM,–,> 100 µM,–,> 100 µM,–,> 100 µM,–,> 100 µM
O=C1NC(=O)C(c2ccccc2Cl)=C1Nc1cc(Cl)c(O)c(Cl)c1,> 21.5 µM,> 25 µM,15 µM,> 25 µM,12.3 µM,> 25 µM,11.3 µM,> 25 µM,> 23 µM,> 25 µM,13.9 µM,> 25 µM,> 14.6 µM,> 25 µM,11.7 µM,> 25 µM,> 13 µM,> 25 µM,11.4 µM,> 25 µM
CNC(=O)c1ccc(N2C(=S)N(c3ccc(C#N)c(C(F)(F)F)c3)C(=O)C2(C)C)cc1F,31 µM,> 52 µM,33.2 µM,> 89.3 µM,33.9 µM,> 100 µM,36.5 µM,> 62.2 µM,30.3 µM,> 100 µM,> 48.6 µM,> 87.3 µM,> 51.8 µM,> 96.1 µM,20.3 µM,50 µM,42.2 µM,> 79.9 µM,26.9 µM,> 72.4 µM
CCCN(CCC)c1ccc(/C=C/c2ccc3cc(OCC)ccc3n2)cc1,73.3 µM,> 100 µM,9.7 µM,> 100 µM,9.37 µM,> 100 µM,> 100 µM,> 100 µM,56.3 µM,> 100 µM,> 100 µM,> 100 µM,> 100 µM,> 100 µM,23.6 µM,> 100 µM,54.7 µM,> 100 µM,72.8 µM,> 100 µM
CNC(=S)NC(=O)c1c(Cl)n(C(=O)OC(C)(C)C)c2ccccc12,21.2 µM,69.9 µM,86 µM,> 100 µM,> 100 µM,> 100 µM,30 µM,> 100 µM,25.5 µM,> 100 µM,35 µM,> 100 µM,> 100 µM,> 100 µM,28.1 µM,> 100 µM,96 µM,> 100 µM,56.2 µM,> 100 µM
CC(=O)N1C/C(=C/c2ccc(Cl)cc2)C(=O)/C(=C/c2ccc(Cl)cc2)C1,2.53 µM,8.5 µM,0.446 µM,1.52 µM,0.335 µM,> 100 µM,0.184 µM,0.395 µM,0.47 µM,2.28 µM,0.785 µM,2.03 µM,1.54 µM,3.2 µM,1.49 µM,2.9 µM,0.963 µM,2.64 µM,0.664 µM,1.84 µM
